Consider 58 compounds from US20240246941A1, “SUBSTITUTED 4-(3-AMINOPROP-1-YL)AMINOQUINOLINE ANALOGS AS MODULATORS OF MELANOMA-ASSOCIATED ANTIGEN 11 UBIQUITIN LIGASE” (ST. JUDE CHILDREN'S RESEARCH HOSPITAL, INC., priority 2020, published 2024).

Like-named read-outs stand apart in the source and are kept apart here.

The target of the assay is interaction between GST-MAGEA11 MHD and FAM-PCF11_4 peptide (MAGE-A11:PCF11) (Homo sapiens (Human), UniProt P43364). As to the kind of experiment: TR-FRET dose response competition assay for disruption of MAGE-A11:PCF11 binding. An outline of the steps: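 Competition TR-FRET at room temperature in 50 mM Tris pH 7.5, 20 mM MgCl2, 0.1 mg/ml BSA, 1 mM DTT: final 5 nM GST-MAGEA11 MHD, 5 nM Tb-anti-GST, 200 nM FAM-PCF11_4, 90 min. Ratio 520/490 nm converted to % inhibition; IC50 from sigmoidal fit.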
On the technique in general: TR-FRET usually uses a lanthanide donor and a delayed reading to cut background.

Where [1] appears, read: Dose response TR-FRET screening of nine scaffold groups against MAGE-A11:PCF11, read-out: consensus IC50.
The mark [2] stands for this setting: Table 8, representative compounds, read-out: TR-FRET IC50.

Chain of interaction between GST-MAGEA11 MHD and FAM-PCF11_4 peptide (MAGE-A11:PCF11) (P43364 218-429): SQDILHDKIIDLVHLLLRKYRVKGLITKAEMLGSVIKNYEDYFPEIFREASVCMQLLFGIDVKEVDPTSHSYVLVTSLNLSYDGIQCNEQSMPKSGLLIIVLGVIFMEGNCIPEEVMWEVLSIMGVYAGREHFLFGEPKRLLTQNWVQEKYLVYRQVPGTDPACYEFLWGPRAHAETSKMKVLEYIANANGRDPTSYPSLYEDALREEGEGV

The IC50 is the concentration needed to halve the response being measured. Take `O=C1C(Cl)=C(Nc2ccc(Cl)cc2)C(=O)c2ccccc21` [SJ000297073-1]: the half-inhibitory concentration (IC50) under setting [1] was 69.9 µM.
The same measure, in the same setting: the value for `CCn1c2ccccc2c2cc(CN3CCN(C(=O)c4ccc(OC)c(OC)c4)CC3)ccc21` [SJ000298589-1] was 69.9 µM; that for `COC(=O)c1ccc(NC2=C(Cl)C(=O)c3ccccc3C2=O)cc1` [SJ000299646-1] was 69.9 µM; that for `CC1CCCC(C)C1NC1=C(Cl)C(=O)c2ccccc2C1=O` (stereo not shown) [SJ000299694-1] was 69.9 µM.
Turning to `CC(=O)N(C1=C(Cl)C(=O)c2ccccc2C1=O)c1ccc(Br)cc1` [SJ000299699-2], the concentration for half-maximal inhibition (IC50) under setting [1] was 69.9 µM.
The same measure, in the same setting: the figure for `O=C1C(Cl)=C(Nc2ccc(Nc3ccccc3)cc2)C(=O)c2ccccc21` [SJ000299708-1] is 69.9 µM; for `NC1=C(Nc2cccc3ccccc23)C(=O)c2ccccc2C1=O` [SJ000300361-1] it is 69.9 µM.
The same measure, in the same setting: the value for `Cn1c2ccccc2c2cc(C(=O)N3CCc4nncn4CC3)ccc21` [SJ000307416-1] was 69.9 µM; that for `CCn1c2ccccc2c2cc(CN3CCc4nnc(CNS(=O)(=O)C(C)C)n4CC3)ccc21` [SJ000307753-1] was 69.9 µM; that for `CCn1c2ccccc2c2cc(CN3CCc4nnc(C(C)NC(=O)CCOC)n4CC3)ccc21` (stereo not shown) [SJ000307915-1] was 69.9 µM.
Still for that read-out and setting: the value for `CCn1c2ccccc2c2cc(CN3CCc4nnc(CNC(=O)c5ccccc5)n4CC3)ccc21` [SJ000307948-1] was 69.9 µM; that for `Cn1c2ccccc2c2cc(C(=O)NCC3CCC4(CCN(Cc5ccccn5)CC4)O3)ccc21` (stereo not shown) [SJ000308489-1] was 69.9 µM; that for `COc1ccccc1CNCCCNc1ccnc2cc(Cl)ccc12` [SJ000311185-1] was 69.9 µM.
For `COc1ccccc1CNCCCNc1ccnc2cc(Cl)ccc12` [SJ000311185], the IC50 under setting [2] is 69.9 µM.
As to `Oc1ccc(Br)cc1CNCCCNc1ccnc2cc(Cl)ccc12` [SJ000311186-1], the 50% inhibitory concentration (IC50) under setting [1] stood at 69.9 µM.
Take `Oc1ccc(Br)cc1CNCCCNc1ccnc2cc(Cl)ccc12` [SJ000311186]: the 50% inhibitory concentration (IC50) under setting [2] was determined as 69.9 µM.
For `Oc1ccccc1CNCCCNc1ccnc2cc(Cl)ccc12` [SJ000311187-1], the IC50 under setting [1] was 69.9 µM.
As for `Oc1ccccc1CNCCCNc1ccnc2cc(Cl)ccc12` [SJ000311187], under setting [2], the concentration for half-maximal inhibition (IC50) is 69.9 µM.
In the case of `COc1ccc(O)c(C(C)NCCCNc2ccnc3cc(Cl)ccc23)c1` (stereo not shown) [SJ000311188-1], under setting [1], the IC50 was 69.9 µM.
Consider `COc1ccc(O)c(C(C)NCCCNC2C=CN=C3C=C(Cl)C=CC32)c1` (stereo not shown) [SJ000311188], for which the IC50 under setting [2] was determined as 69.9 µM.
In the case of `O=[N+]([O-])c1ccc(CNCCCNc2ccnc3cc(Cl)ccc23)cc1O` [SJ000311191-1], the 50% inhibitory concentration (IC50) under setting [1] amounted to 69.9 µM.
In the case of `O=[N+]([O-])c1ccc(CNCCCNc2ccnc3cc(Cl)ccc23)cc1O` [SJ000311191], the half-maximal inhibitory concentration (IC50) under setting [2] is 69.9 µM.
Turning to `COc1ccc(CNCCCNc2ccnc3cc(Cl)ccc23)cc1O` [SJ000311192-1], the IC50 under setting [1] was determined as 69.9 µM.
Turning to `COc1ccc(CNCCCNc2ccnc3cc(Cl)ccc23)cc1O` [SJ000311192], the IC50 under setting [2] came out at 69.9 µM.
For the compound `CC(C)(C)c1ccc(O)c(CNCCCNc2ccnc3cc(Cl)ccc23)c1` [SJ000311193-1], the IC50 under setting [1] was 30.4 µM.
On to `CC(C)(C)c1ccc(O)c(CNCCCNc2ccnc3cc(Cl)ccc23)c1` [SJ000311193], for which the IC50 under setting [2] turned out to be 30.4 µM.
With `Oc1ccc(Br)c(CNCCCNc2ccnc3cc(Cl)ccc23)c1` [SJ000311194-1], the IC50 under setting [1] worked out at 69.9 µM.
Turning to `Oc1ccc(Br)c(CNCCCNc2ccnc3cc(Cl)ccc23)c1` [SJ000311194], the IC50 under setting [2] turned out to be 69.9 µM.
For the compound `CCCN(CCCCNc1ccnc2cc(Cl)ccc12)Cc1cc(Br)ccc1O` [SJ000311196-1], under setting [1], the half-maximal inhibitory concentration (IC50) worked out at 69.9 µM.
As to `COc1cccc(CNCCCNc2ccnc3cc(Oc4ccccc4)ccc23)c1O` [SJ000311207-1], under setting [1], the IC50 came out at 69.9 µM.
Consider `COc1cccc(CNCCCNc2ccnc3cc(Oc4ccccc4)ccc23)c1O` [SJ000311207], for which, under setting [2], the IC50 is 69.9 µM.
For `c1ccc(Oc2ccc3c(NCCCNCc4cccc5c4OCO5)ccnc3c2)cc1` [SJ000311208-1], the IC50 under setting [1] amounted to 30.1 µM.
On to `c1ccc(Oc2ccc3c(NCCCNCc4cccc5c4OCO5)ccnc3c2)cc1` [SJ000311208], for which the half-inhibitory concentration (IC50) under setting [2] is 30.1 µM.
`COc1ccc(F)cc1CNCCCNc1ccnc2cc(Oc3ccccc3)ccc12` [SJ000311209-1]: the IC50 under setting [1] is 29 µM.
For the compound `COc1ccc(F)cc1CNCCCNc1ccnc2cc(Oc3ccccc3)ccc12` [SJ000311209], under setting [2], the IC50 is 29 µM.
Regarding `COc1ccccc1Oc1ccc2c(NCCCNCc3cccc(OC)c3O)ccnc2c1` [SJ000311211-1], the IC50 under setting [1] turned out to be 69.9 µM.
As to `COc1ccccc1Oc1ccc2c(NCCCNCc3cccc(OC)c3O)ccnc2c1` [SJ000311211], under setting [2], the IC50 came to 69.9 µM.
Take `COc1ccccc1Oc1ccc2c(NCCCNCc3cccc4c3OCO4)ccnc2c1` [SJ000311212-1]: the IC50 under setting [1] turned out to be 69.9 µM.
For the compound `COc1ccccc1Oc1ccc2c(NCCCNCc3cccc4c3OCO4)ccnc2c1` [SJ000311212], under setting [2], the IC50 was determined as 69.9 µM.
Turning to `COc1ccc(F)cc1CNCCCNc1ccnc2cc(Oc3ccccc3OC)ccc12` [SJ000311213-1], the half-inhibitory concentration (IC50) under setting [1] turned out to be 69.9 µM.
For `COc1ccc(F)cc1CNCCCNc1ccnc2cc(Oc3ccccc3OC)ccc12` [SJ000311213], under setting [2], the half-maximal inhibitory concentration (IC50) was found to be 69.9 µM.
As for `COc1cccc(Oc2ccc3c(NCCCNCc4cccc(OC)c4O)ccnc3c2)c1` [SJ000311215-1], the IC50 under setting [1] is 69.9 µM.
Turning to `COc1cccc(Oc2ccc3c(NCCCNCc4cccc(OC)c4O)ccnc3c2)c1` [SJ000311215], the half-inhibitory concentration (IC50) under setting [2] stood at 69.9 µM.
Consider `COc1cccc(Oc2ccc3c(NCCCNCc4cccc5c4OCO5)ccnc3c2)c1` [SJ000311216-1], for which the half-inhibitory concentration (IC50) under setting [1] was determined as 36.9 µM.
As for `COc1cccc(Oc2ccc3c(NCCCNCc4cccc5c4OCO5)ccnc3c2)c1` [SJ000311216], the IC50 under setting [2] worked out at 36.9 µM.
Consider `COc1cccc(Oc2ccc3c(NCCCNCc4cc(F)ccc4OC)ccnc3c2)c1` [SJ000311217-1], for which the IC50 under setting [1] was found to be 36.8 µM.
With `COc1cccc(Oc2ccc3c(NCCCNCc4cc(F)ccc4OC)ccnc3c2)c1` [SJ000311217], the IC50 under setting [2] was determined as 36.8 µM.
Regarding `COc1ccc(Oc2ccc3c(NCCCNCc4ccco4)ccnc3c2)cc1` [SJ000311218-1], the IC50 (Table 5, dose response TR-FRET screening of 59 quinoline compounds against MAGE-A11:PCF11, read-out: TR-FRET IC50) is > 70 µM.
With `COc1ccc(Oc2ccc3c(NCCCNCc4cccc(OC)c4O)ccnc3c2)cc1` [SJ000311219-1], the IC50 under setting [1] came to 29 µM.
Turning to `COc1ccc(Oc2ccc3c(NCCCNCc4cccc(OC)c4O)ccnc3c2)cc1` [SJ000311219], the IC50 under setting [2] came out at 29.1 µM.
As for `COc1ccc(Oc2ccc3c(NCCCNCc4cccc5c4OCO5)ccnc3c2)cc1` [SJ000311220-1], the IC50 under setting [1] was 43.7 µM.
`COc1ccc(Oc2ccc3c(NCCCNCc4cccc5c4OCO5)ccnc3c2)cc1` [SJ000311220]: under setting [2], the 50% inhibitory concentration (IC50) was 43.7 µM.
Regarding `COc1ccc(Oc2ccc3c(NCCCNCc4cc(F)ccc4OC)ccnc3c2)cc1` [SJ000311221-1], the 50% inhibitory concentration (IC50) under setting [1] was determined as 46.4 µM.
Consider `COc1ccc(Oc2ccc3c(NCCCNCc4cc(F)ccc4OC)ccnc3c2)cc1` [SJ000311221], for which the IC50 under setting [2] worked out at 46.5 µM.
In the case of `COc1cccc(CNCCCNc2ccnc3cc(Oc4ccc(F)cc4)ccc23)c1O` [SJ000311223-1], under setting [1], the IC50 was determined as 61.9 µM.
For the compound `COc1cccc(CNCCCNc2ccnc3cc(Oc4ccc(F)cc4)ccc23)c1O` [SJ000311223], the IC50 under setting [2] was found to be 61.9 µM.
Take `Fc1ccc(Oc2ccc3c(NCCCNCc4cccc5c4OCO5)ccnc3c2)cc1` [SJ000311224-1]: the half-inhibitory concentration (IC50) under setting [1] stood at 59.6 µM.
As to `Fc1ccc(Oc2ccc3c(NCCCNCc4cccc5c4OCO5)ccnc3c2)cc1` [SJ000311224], the concentration for half-maximal inhibition (IC50) under setting [2] stood at 59.6 µM.
